Where a name gives a salt, the structure may show the parent alone.

Take `O=S(=O)(c1ccccc1)N1CCOc2c(N3CCNCC3)cc(Cl)cc21` (as salt: hydrochloride): the melting point lay within 202 to 205 °C. The same measure for `Cc1cc(N2CCNCC2)c2c(c1)N(S(=O)(=O)c1ccc(Cl)cc1)CCO2` (as salt: hydrochloride): 147.9 to 152.9 °C; for `CS(=O)(=O)Nc1cccc(S(=O)(=O)N2CCOc3c(N4CCNCC4)cccc32)c1` [Compound 20, N-[3-(8-Piperazin-1-yl-2,3-dihydro-benzo[1,4]oxazine-4-sulfonyl)-phenyl]-methanesulfonamide]: 158.5 to 163.5 °C.

Usually melting point stands for the temperature, or range, at which the solid turns liquid.

Values taken from patent publication US8377931B2, “Benzoxazine derivatives and uses thereof” (Roche Palo Alto LLC, priority 2002, dated 2013).
